# Laboratory results from publication PMC12752606, “METTL10‐Mediated PIAS3 Methylation Links Purine Metabolism to Gastric Cancer Progression” (Advanced Science, 2025).
# What was measured:
# [1] = tested on: gastric tumors of K19-C2mE mice; assay: K19-C2mE spontaneous gastric cancer mouse model; type: in vivo; conditions: 40 mg/kg/day i.p., 4 weeks
# Description: (§1) For the subcutaneous tumor model, 5 × 10⁶ MKN45 cells suspended in 100 µL of sterile PBS were injected subcutaneously into the flanks of BALB/c nude mice. When tumor volumes reached approximately 50 mm^3, mice were randomized into three groups (Vehicle control, LZQ‐02‐023‐01 at 20 mg/kg or 40 mg/kg, n = 10 per group). All treatments were administered via intraperitoneal injection once daily for 14 consecutive days. Tumor volumes were measured every 2 days using calipers and calculated using the formula: volume = [length × (width[2])]/2. Mice were sacrificed on day 24 for endpoint analyses. For genetically engineered mouse models (GEMMs), 25‐week‐old K19‐C2mE mice were randomized into Vehicle control (n = 8) and LZQ‐02‐023‐01 treatment (40 mg/kg, n = 8) groups. Both groups received daily intraperitoneal injections for 28 consecutive days. Similarly, 8‐week‐old Cldn18‐AT mice were induced with tamoxifen (100 mg/kg, T5648, Sigma) and, 2 weeks post‐induction, randomized into Vehicle (n = 6) and LZQ‐02‐023‐01 (40 mg/kg, n = 6) treatment groups. Treatments were administered daily via intraperitoneal injection for 28 days.
# Paraffin sections were initially placed in an oven at 65 °C for 30 min to melt the paraffin. The slides were then immersed in two consecutive xylene baths for 10 min each to dewax the tissue, followed by hydration through a series of graded ethanol solutions. […]
# [2] = Body weight and organ toxicity in treated tumor-bearing mice; type: in vivo; conditions: K19-C2mE and Cldn18-AT mice
# Description: as §1
# [3] = tested on: Flag-METTL10 protein in HEK293T cells; assay: Cycloheximide chase assay of Flag-METTL10 stability; type: cell-based; conditions: 20 µM
# [4] = target: T1, GFP-tagged METTL10 protein (Homo sapiens, UniProt Q5JPI9); assay: Microscale thermophoresis (MST); type: binding; conditions: lysate of HEK293T cells expressing GFP-METTL10, read-out: Dissociation constant (KD)
# T1 construct: host or cells: HEK293T
# Description: Microscale thermophoresis (MST) assays were conducted following the protocol.^[ [49] ^] Briefly, HEK293T cells were transfected with either the pEGFP‐N1‐METTL10 plasmid or the control pEGFP‐N1‐Vector plasmid for 24 h. Subsequently, protein lysates were obtained through ultrasonic disruption at 4 °C. Aliquots of the lysate were then incubated with serially diluted ligands at 37 °C for 30 min. Fluorescence signals were measured, and dissociation constants (Kd) were determined using the NanoTemper Monolith Pico.
# [5] = tested on: METTL10 protein levels in MKN45 and AGS cells; assay: Immunoblotting of METTL10 protein levels in treated GC cells; type: cell-based; conditions: 20 µM, not rescued by MG132
# Description: Protein extraction from tissues or cells was performed by lysis buffer (20 mM Tris‐HCl (pH 7.5), 150 mM NaCl, 1 mM EDTA, 1 mM EGTA, 2.5 mM sodium pyrophosphate, 1 mM β‐glycerolphosphate, 1% Triton X‐100) supplemented with 1% phenylmethylsulfonyl fluoride (PMSF; Solarbio, P0100) and protease inhibitor cocktail (Apexbio, K1007) and lysed at 4 °C for 60 min, followed by centrifugation at 12000 g for 15 min at 4 °C. For Immunoblotting, the protein concentration was determined using the Pierce BCA Protein Assay Kit (Thermo Fisher Scientific, A55864). The protein samples were denatured by boiling in SDS‐PAGE loading buffer. For immunoprecipitation, antibodies were incubated with Dynabeads Protein G (Thermo, 10004D) at 4 °C for 4 h. The supernatant was then incubated with magnetic beads conjugated with antibodies or anti‐FLAG‐M2 magnetic beads (Sigma–Aldrich, M8823) at 4 °C overnight. Following incubation, the magnetic beads were washed three times with lysis buffer and then boiled in SDS‐PAGE loading buffer. The proteins were separated by sodium dodecyl sulfate polyacrylamide gel electrophoresis (SDS‐PAGE) with One‐Step PAGE Gel Fast Preparation Kit (Vazyme), and then transferred to the PVDF Membrane (Bio‐Rad). After blocking with a protein‐free rapid blocking buffer (Epizyme, PS108P) for 15 min, the membranes were incubated with primary antibodies at 4 °C overnight. […]
# [6] = tested on: purine nucleotides in MKN45 and AGS cells; assay: Purine metabolite levels by LC-MS; type: cell-based; conditions: 20 µM
# Description: Cells were collected and transferred to centrifuge tubes, followed by three washes with cold PBS. The samples were then resuspended in an extraction solution (methanol: acetonitrile: water = 2:2:1, v/v/v, 1 mL) and vortexed for 30 s. The suspension underwent ice bath sonication for 10 min and frozen and thawed in liquid nitrogen for repeated three times. To fully precipitate proteins, the samples were incubated at −20 °C for 1 h. Subsequently, the cell lysates were centrifuged at 13000 rpm for 15 min at 4 °C. The supernatant was then lyophilized using a low‐temperature vacuum centrifugal concentrator and analyzed by LC‐MS using the AB SCIEX QTRAP 6500^+ system.
# [7] = MKN45 xenograft, 20 or 40 mg/kg/day
# T1 sequence (Q5JPI9 1-291 isoform Q5JPI9-1): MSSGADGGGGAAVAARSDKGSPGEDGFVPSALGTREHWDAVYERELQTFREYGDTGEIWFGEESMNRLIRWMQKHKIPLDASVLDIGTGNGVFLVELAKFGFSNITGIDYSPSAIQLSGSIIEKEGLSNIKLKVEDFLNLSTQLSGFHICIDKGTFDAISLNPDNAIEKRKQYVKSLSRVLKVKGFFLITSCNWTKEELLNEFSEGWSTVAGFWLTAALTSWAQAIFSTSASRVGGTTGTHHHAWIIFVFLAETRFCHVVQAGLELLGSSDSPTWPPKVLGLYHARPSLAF
compound,measurement,setting,value
"Cc1ccc(Nc2ncc3c(n2)N(C)C(=O)N(c2cccc(N)c2)C3)cn1 [LZQ-02-023-01, Three‐(3‐aminophenyl)‐1‐methyl‐7‐((6‐methylpyridin‐3‐yl)amino)‐3,4‐dihydropyrimido [4,5‐d] pyrimidin‐2 (1H)‐one]","Pathologic grade of lesions and proliferation (H&E, Ki-67)",[1],lower pathologic grade lesions and proliferation
same,Tumor burden and progression,[1],significantly reduce tumor burden and progression
same,Spleen weight,[2]; 40 mg/kg/day,reduction
same,Body weight loss,[2]; [7],did not cause substantial weight loss
same,Discernible toxic effects on other organs,[2]; [7],did not cause
same,Half-life of METTL10 protein,[3],remained unchanged
same,Kd,[4],4.47 µM
same,METTL10 protein levels,[5],significant reduction
same,Levels of purine nucleotides,[6],decreased
